Measured values as given in ChEMBL document CHEMBL4706559, “New indolylarylsulfone non-nucleoside reverse transcriptase inhibitors show low nanomolar inhibition of single and double HIV-1 mutant strains” (Eur J Med Chem, 2020).
pEC50, pIC50: −log10 of the molar value.

Tests used:
[1] = Cytotoxicity against human MT-4 cells assessed as reduction in cell viability by MTT assay; assay type: cell-based, MT4
[2] = test system: Human immunodeficiency virus 1; experiment: Antiviral activity against HIV1 harboring RT Y188L mutant infected in human MT4 cells assessed as protection against virus-induced cytopathic effect by MTT assay; assay type: functional, organism-based; details: Human immunodeficiency virus 1, MT4
[3] = test system: Human immunodeficiency virus 1; experiment: Resistance index, ratio of EC50 for antiviral activity against HIV1 harboring RT K103N mutant infected in human MT4 cells to EC50 for antiviral activity against HIV1 NL4-3 infected in human MT4 cells; assay type: functional
[4] = test system: Human immunodeficiency virus 1; experiment: Antiviral activity against HIV1 harboring RT Y181C mutant infected in human MT4 cells assessed as protection against virus-induced cytopathic effect by MTT assay; assay type: functional, organism-based; details: Human immunodeficiency virus 1, MT4
[5] = test system: Human immunodeficiency virus 1; experiment: Antiviral activity against HIV1 harboring RT K103N/Y181C double mutant infected in human MT4 cells assessed as protection against virus-induced cytopathic effect by MTT assay; assay type: functional, organism-based; details: Human immunodeficiency virus 1, MT4
[6] = test system: Human immunodeficiency virus 1; experiment: Antiviral activity against HIV-1 NL4-3 infected in human MT-4 cells assessed as virus induced cytopathic effect by MTT assay; assay type: functional, organism-based; details: Human immunodeficiency virus 1, NL4-3, MT4
[7] = test system: Human immunodeficiency virus 1; experiment: Resistance index, ratio of EC50 for antiviral activity against HIV1 harboring RT K103N/Y181C double mutant infected in human MT4 cells to EC50 for antiviral activity against HIV1 NL4-3 infected in human MT4 cells; assay type: functional
[8] = test system: Human immunodeficiency virus 1; experiment: Resistance index, ratio of EC50 for antiviral activity against HIV1 harboring RT Y188L mutant infected in human MT4 cells to EC50 for antiviral activity against HIV1 NL4-3 infected in human MT4 cells; assay type: functional
[9] = test system: Human immunodeficiency virus 1; experiment: Resistance index, ratio of EC50 for antiviral activity against HIV1 harboring RT Y181C mutant infected in human MT4 cells to EC50 for antiviral activity against HIV1 NL4-3 infected in human MT4 cells; assay type: functional
[10] = test system: Human immunodeficiency virus 1; experiment: Antiviral activity against HIV1 harboring RT K103N mutant infected in human MT4 cells assessed as protection against virus-induced cytopathic effect by MTT assay; assay type: functional, organism-based; details: Human immunodeficiency virus 1, MT4
[11] = Selectivity ratio of CC50 for human MT4 cells to EC50 for antiviral activity against HIV-1 NL4-3 infected in human MT4 cells; assay type: toxicity, cell-based; details: read-out: Ratio CC50/EC50
[12] = Inhibition of RNA-dependent DNA polymerase activity of recombinant HIV-1 p66/p51 reverse transcriptase Y188L mutant assessed as inhibition of [3H]dTTP incorporation using poly(rA)/oligo(dT) as templates incubated for 15 mins by MicroBeta scintillation counting method; design: species or system Human immunodeficiency virus 1
[13] = biological target: Human immunodeficiency virus type 1 reverse transcriptase (Human immunodeficiency virus 1, UniProt Q72547); experiment: Inhibition of RNA-dependent DNA polymerase activity of wild type recombinant HIV-1 His-tagged p66/p51 reverse transcriptase assessed as inhibition of [3H]dTTP incorporation using poly(rA)/oligo(dT) as templates incubated for 15 mins by MicroBeta scintillation counting method
[14] = biological target: Human immunodeficiency virus type 1 reverse transcriptase (Human immunodeficiency virus 1, UniProt Q72547, K103N); experiment: Inhibition of RNA-dependent DNA polymerase activity of recombinant HIV-1 p66/p51 reverse transcriptase K103N mutant assessed as inhibition of [3H]dTTP incorporation using poly(rA)/oligo(dT) as templates incubated for 15 mins by MicroBeta scintillation counting method
[15] = Inhibition of RNA-dependent DNA polymerase activity of recombinant HIV-1 p66/p51 reverse transcriptase K103N/Y181C mutant assessed as inhibition of [3H]dTTP incorporation using poly(rA)/oligo(dT) as templates incubated for 15 mins by MicroBeta scintillation counting method; design: species or system Human immunodeficiency virus 1

Compound	CC50 [1] [nM]	pEC50 [2]	Ratio EC50 [3]	pEC50 [4]	pEC50 [5]	pEC50 [6]	Ratio EC50 [7]	Ratio EC50 [8]	Ratio EC50 [9]	pEC50 [10]	selectivity ratio [11]	pIC50 [12]	pIC50 [13]	pIC50 [14]	pIC50 [15]
Cc1cc(C)cc(S(=O)(=O)c2c(C(=O)NCCc3ccc(O)cc3)[nH]c3ccc(Cl)cc23)c1	27400	< 4.56	>276	7.07	5.37	> 9.15	6152	>39103	>141	6.78	> 39100				
Cc1cc(C)cc(S(=O)(=O)c2c(C(=O)NCc3cccc(O)c3)[nH]c3ccccc23)c1	> 5200	5.90		7.68	5.74	> 9.15	>2584	>1808	>30	> 9.15	> 3640				
Cc1cc(C)cc(S(=O)(=O)c2c(C(=O)NCc3ccc(O)c(O)c3)[nH]c3ccc(Cl)cc23)c1	18300	7.15		8.39	5.49	> 9.15	>4624	>100	>5.9	> 9.15	> 26200				
Cc1cc(C)cc(S(=O)(=O)c2c(C(=O)NC(C)C(=O)NCc3ccccc3O)[nH]c3ccc(Cl)cc23)c1 (stereo not given)	14400	5.18	>62	7.39	5.28	> 9.22	>8733	10925	>68	7.43	> 23900				
NC(=O)c1[nH]c2ccc(Cl)cc2c1S(=O)(=O)c1ccccc1 [L-737126]					5.10										
Cc1cc(C)cc(S(=O)(=O)c2c(C(=O)Nc3ccc(O)cc3)[nH]c3ccc(Cl)cc23)c1	18100	6.00		> 9.15	6.01	> 9.15	>1381	>1413		> 9.15	> 25800	7.09	7.16	6.97	6.43
Cc1cc(C)cc(S(=O)(=O)c2c(C(=O)NCc3ccc(O)cc3)[nH]c3ccc(Cl)cc23)c1	6250	6.18		> 9.15	6.15	> 9.15	>1006	>944		> 9.15	> 8930	7.30	7.21	7.35	6.20
Cc1cc(C#N)cc(C)c1Oc1nc(Nc2ccc(C#N)cc2)nc(N)c1Br [ETRAVIRINE]	> 23000	7.80		7.74	8.34	7.79				9.15		6.79			7.01
Cc1cc(C)cc(S(=O)(=O)c2c(C(=O)NCC(=O)NCc3cccc(O)c3)[nH]c3ccc(Cl)cc23)c1	> 47500	5.40	>728	8.12	5.45	> 9.22	>5925	>6590	>13	6.36	> 79200				
Cc1cc(C)cc(S(=O)(=O)c2c(C(=O)NCc3ccc(CO)cc3)[nH]c3ccc(Cl)cc23)c1	31100			7.66	5.48	> 9.15	>4703		>31	> 9.15	> 44400	6.75	7.42	7.10	6.73
Cc1cc(C)cc(S(=O)(=O)c2c(C(=O)NC(C)c3ccccc3O)[nH]c3ccc(Cl)cc23)c1 (stereo not given)	21800	6.72		7.72	6.18	> 9.15	>946	>270	>27	> 9.15	31100				
Cc1cc(C)cc(S(=O)(=O)c2c(C(=O)NC(C)C(N)=O)[nH]c3ccc(Cl)cc23)c1 (stereo not given)					6.15										
Cc1cc(C)cc(S(=O)(=O)c2c(C(=O)Nc3ccc(CO)cc3)[nH]c3ccc(Cl)cc23)c1	39600			7.66	4.71	> 9.15	>27904		>31	> 9.15	> 56600				
COc1cc(CNC(=O)c2[nH]c3ccc(Cl)cc3c2S(=O)(=O)c2cc(C)cc(C)c2)ccc1O	28700	6.66		8.70	5.95	> 9.22	1871	367	3.3	> 9.22	> 47800				
Cc1ccnc2c1NC(=O)c1cccnc1N2C1CC1 [NEVIRAPINE]	> 18800	< 5.43		< 5.43	< 5.43	6.95				< 5.43					
Cc1cn([C@H]2C[C@H](N=[N+]=[N-])[C@@H](CO)O2)c(=O)[nH]c1=O [ZIDOVUDINE]	> 30600		4.3		7.80	8.43		8.9	1.6		> 8270				
Cc1cc(C)cc(S(=O)(=O)c2c(C(N)=O)[nH]c3ccc(Cl)cc23)c1					6.19										
Cc1cc(C)cc(S(=O)(=O)c2c(C(=O)NC(C)c3cccc(O)c3)[nH]c3ccc(Cl)cc23)c1 (stereo not given)	16000	6.78		8.00	6.22	> 9.15	857	237	14	> 9.15	> 22800				
Cc1cc(C)cc(S(=O)(=O)c2c(C(=O)NCc3cc(O)ncn3)[nH]c3ccc(Cl)cc23)c1	> 53100	6.97		9.15	4.85	> 9.15	>20385	>151		> 9.15	> 75800				
Cc1cc(C)cc(S(=O)(=O)c2c(C(=O)Nc3ccccc3O)[nH]c3ccc(Cl)cc23)c1	19700	5.32		7.70	< 4.71	> 9.15	>28166	>6881	>28	< 9.15	> 28200				
Cc1cc(C)cc(S(=O)(=O)c2c(C(=O)NCN3CCCC3)[nH]c3ccc(Cl)cc23)c1					6.52										
Cc1cc(C)cc(S(=O)(=O)c2c(C(=O)NCCc3ccccc3O)[nH]c3ccc(Cl)cc23)c1	23800	6.68		> 9.15	6.48	> 9.15	>473	>296		> 9.15	> 34000				
Cc1cc(C)cc(S(=O)(=O)c2c(C(=O)Nc3cccc(O)c3)[nH]c3ccc(Cl)cc23)c1	24600	6.34		7.36	5.22	> 9.15	>8698	>650	>62	> 9.15	> 35200				
O=C1Nc2ccc(Cl)cc2[C@@](C#CC2CC2)(C(F)(F)F)O1 [EFAVIRENZ]	> 15800				< 6.50										
Cc1cc(C)cc(S(=O)(=O)c2c(C(=O)NCC(=O)NCc3ccccc3O)[nH]c3ccc(Cl)cc23)c1	> 47300	8.77	>251	8.72	5.34	> 9.22	>7701	>2.8	>3.2	6.82	> 78900				
